The values below come from ChEMBL document CHEMBL5154702, “Synthesis and biological evaluation of aminobenzamides containing purine moiety as class I histone deacetylases inhibitors” (Bioorg Med Chem, 2022).

In general, IC50 refers to the concentration at which inhibition is half-maximal. Low readings indicate greater potency in that assay, high ones weaker potency in that assay. One may read the half-life as how long it takes for the measured level to halve. High values mean slow decline, low ones rapid decline.

In one series the test system is MDA-MB-231. Briefly: Antiproliferative activity against human MDA-MB-231 cells measured after 48 hrs by MTT assay. Format: functional, cell-based. Particulars: MDA-MB-231, 48 h.
Another series can be described thus: in vitro. The settings on record: dog, liver microsomes. For orientation: Microsomes from liver hold many membrane-bound enzymes, among them those of drug oxidation.
For the next series, the system named is SGC-7901. Briefly: Antiproliferative activity against human SGC-7901 cells measured after 48 hrs by MTT assay. Particulars: SGC-7901, 48 h. It counts as functional, cell-based. (In general: Tetrazolium assays rely on reduction of a dye to a coloured formazan, in cell work by metabolically active cells.)
Another series relates to HCT-116. Briefly: Antiproliferative activity against human HCT-116 cells measured after 48 hrs by MTT assay. It counts as functional, cell-based. The settings on record: HCT-116, 48 h.

Take `O=C(CCCCCCC(=O)Nc1ccccc1)NO` [VORINOSTAT]: the half-maximal inhibitory concentration (IC50) in the series on MDA-MB-231 amounted to 1.54 µM; with SGC-7901, 2.12 µM; in the series with HCT-116 it was 1.55 µM. This compound also had a half-life in the series “in vitro” of 30 min.
